≈ marks a conversion by molar mass, not a printed value. Structures can show the parent of a compound that is named as a salt. Where two headings read alike, the source gives them in different places. Marks after values point to notes of the source that are not given here.
What was measured:
Slc:ddy male mice = experiment: Acute toxicity, intravenous administration to mice; format: in vivo; settings: deaths/mice dosed
Experimental: A solution of 5-amino-7-[4-(R)-(1-aminocyclopropyl)-3-(S)-fluoro-1-pyrrolidinyl]-6-fluoro-1-[2-(S)-fluoro-1-(R)-cyclopropyl]-1,4-dihydro-8-methyl-4-oxoquinoline-3-carboxylic acid (abbreviated as cis) hydrochloride (Example 2) or 5-amino-7-[4-(R)-(1-aminocyclopropyl)-3-(R)-fluoro-1-pyrrolidinyl]-6-fluoro-1-(2-(S)-fluoro-1-(R)-cyclopropyl]-1,4-dihydro-8-methyl-4-oxoquinoline-3-carboxylic acid (abbreviated as trans) hydrochloride in distilled water for injection was administered intravenously to Slc:ddy male mice (five mice per group) and the symptoms are observed. The results are as follows.

Str. pyogenes, G-36 = experiment: Antimicrobial activity (MIC), standard method of Japan Society of Chemotherapy; format: cell-based
Experimental: (§1) To further illustrate the present invention in greater detail, and not by way of limitation, the following Examples will be given. The antimicrobial activity of each target compound was evaluated in accordance with the standard method specified by Japan Society of Chemotherapy and expressed in MIC (μg/ml).

S. epidermidis, 56500 = experiment: as above; format: cell-based
Experimental: as §1

X. maltophilia, 11D-1275 = experiment: as above; format: cell-based
Experimental: as §1

Pr. mirabilis, IFO-3849 = experiment: as above; format: cell-based
Experimental: as §1

E. coli, NIHJ = experiment: as above; format: cell-based
Experimental: as §1

S. aureus, 870307 = experiment: as above; format: cell-based
Experimental: as §1

Pr. vulgaris, 08601 = experiment: as above; format: cell-based
Experimental: as §1

Ps. aeruginosa, 32121 = experiment: as above; format: cell-based
Experimental: as §1

S. aureus, 209P = experiment: as above; format: cell-based
Experimental: as §1

S. flexneli, 2A 5503 = experiment: as above; format: cell-based
Experimental: as §1

Ser. marcescens, 10100 = experiment: as above; format: cell-based
Experimental: as §1

Ps. aeruginosa, 32104 = experiment: as above; format: cell-based
Experimental: as §1

[1] = system: Str. faecalis, ATCC-19433; experiment: as above; format: cell-based
Experimental: as §1

[2] = 150 mg/kg intravenously, five per group
[3] = Streptococcus pyogenes, G36, read-out: MIC
[4] = Staphylococcus epidermidis, read-out: MIC
[5] = Stenotrophomonas maltophilia, 11D1275, read-out: MIC
[6] = Proteus mirabilis, IFO3849, read-out: MIC
[7] = Escherichia coli, read-out: MIC
[8] = Staphylococcus aureus, read-out: MIC
[9] = Proteus vulgaris, read-out: MIC
[10] = Pseudomonas aeruginosa, read-out: MIC
[11] = Serratia marcescens, read-out: MIC
[12] = Enterococcus faecalis, ATCC19433, read-out: MIC

Cc1c(N2CC(F)[C@@H](C3(N)CCC3)C2)c(F)c(N)c2c(=O)c(C(=O)O)cn(C3CC3F)c12 (single isomer, unassigned; isomer b) [Example 9]
Number of death (Slc:ddy male mice; [2]): same result

Cc1c(N2CC(CO)C(C3(N)CC3)C2)c(F)c(N)c2c(=O)c(C(=O)O)cn(C3CC3)c12 (stereo not drawn) [Example 1, 5-Amino-7-[cis-4-(1-aminocycloproiyl)-3-hydroxymethyl-1-pyrrolidinyl]-1-cyclopropyl-6-fluoro-1,4-dihydro-8-methyl-4-oxoquinoline-3-carboxylic acid]
Number of death (Slc:ddy male mice; [2]): same result

Cc1c(N2C[C@@H](F)[C@@H](C3(N)CC3)C2)c(F)c(N)c2c(=O)c(C(=O)O)cn([C@@H]3C[C@@H]3F)c12 [Example 2, 5-Amino-7-[4-(R)-(1-aminocyclopropyl)-3-(S)-fluoro-1-pyrrolidinyl]-6-fluoro-1-[2-(S)-fluoro-1-(R)-cyclopropyl1-1,4-dihydro-8-methyl-4-oxoquinoline-3-carboxylic acid hydrochloride]
MIC (Str. pyogenes, G-36; [3]): ≤ 0.003 µg/mL
MIC (S. epidermidis, 56500; [4]): ≤ 0.003 µg/mL
MIC (X. maltophilia, 11D-1275; [5]): 0.05 µg/mL
MIC (Pr. mirabilis, IFO-3849; [6]): 0.025 µg/mL
MIC (E. coli, NIHJ; [7]): ≤ 0.003 µg/mL
MIC (S. aureus, 870307; [8]): 0.025 µg/mL
MIC (Pr. vulgaris, 08601; [9]): 0.013 µg/mL
MIC (Ps. aeruginosa, 32121; [10]): 0.05 µg/mL
MIC (S. aureus, 209P; [8]): ≤ 0.003 µg/mL
MIC (S. flexneli, 2A 5503): ≤ 0.003 µg/mL
MIC (Ser. marcescens, 10100; [11]): 0.05 µg/mL
MIC (Ps. aeruginosa, 32104; [10]): 0.1 µg/mL
MIC [1, 12]: 0.025 µg/mL
Number of death (Slc:ddy male mice; [2]): 0/5

COc1c(N2C[C@@H](F)[C@@H](C3(N)CC3)C2)c(F)c(N)c2c(=O)c(C(=O)O)cn([C@@H]3C[C@@H]3F)c12 [Example 3]
MIC (Str. pyogenes, G-36; [3]): 0.013 µg/mL (≈ 0.0287 µM)
MIC (S. epidermidis, 56500; [4]): 0.006 µg/mL (≈ 0.0133 µM)
MIC (X. maltophilia, 11D-1275; [5]): 0.2 µg/mL (≈ 0.442 µM)
MIC (Pr. mirabilis, IFO-3849; [6]): 0.1 µg/mL (≈ 0.221 µM)
MIC (E. coli, NIHJ; [7]): 0.006 µg/mL (≈ 0.0133 µM)
MIC (S. aureus, 870307; [8]): 0.025 µg/mL (≈ 0.0553 µM)
MIC (Pr. vulgaris, 08601; [9]): 0.05 µg/mL (≈ 0.111 µM)
MIC (Ps. aeruginosa, 32121; [10]): 0.2 µg/mL (≈ 0.442 µM)
MIC (S. aureus, 209P; [8]): ≤ 0.003 µg/mL
MIC (S. flexneli, 2A 5503): 0.006 µg/mL (≈ 0.0133 µM)
MIC (Ser. marcescens, 10100; [11]): 0.2 µg/mL (≈ 0.442 µM)
MIC (Ps. aeruginosa, 32104; [10]): 0.39 µg/mL (≈ 0.862 µM)
MIC [1, 12]: 0.05 µg/mL (≈ 0.111 µM)
Number of death (Slc:ddy male mice; [2]): same result

C[C@H]1COc2c(N3C[C@@H](F)[C@@H](C4(N)CC4)C3)c(F)cc3c(=O)c(C(=O)O)cn1c23 [Example 4, 10-[4-(R)-(1-Aminocyclopropyl)-3-(S)-fluoro-1-pyrrolidinyl]-9-fluoro-2,3-dihydro-3-(S)-methyl-7-oxo-7H-pyrido[1,2,3-de][1,4]benzoxazine-6-carboxylic acid]
Number of death (Slc:ddy male mice; [2]): same result

COc1c(N2C[C@@H](F)[C@@H](C3(N)CC3)C2)c(F)cc2c(=O)c(C(=O)O)cn([C@@H]3C[C@@H]3F)c12 [Example 5, 7-[4-(R)-(1-Aminocyclopropyl)-3-(S)-fluoro-1-pyrrolidinyl]-6-fluoro-1-[2-(S)-fluoro-1-(R)-cycloproyyl]-1,4-dihydro-8-methoxy-4-oxoquinoline-3-carboxylic acid]
MIC (Str. pyogenes, G-36): 0.006 µg/mL (≈ 0.0137 µM)
MIC (S. epidermidis, 56500): 0.013 µg/mL (≈ 0.0297 µM)
MIC (X. maltophilia, 11D-1275): 0.20 µg/mL (≈ 0.457 µM)
MIC (Pr. mirabilis, IFO-3849): 0.05 µg/mL (≈ 0.114 µM)
MIC (E. coli, NIHJ): ≦0.003 μg/ml
MIC (S. aureus, 870307): 0.025 µg/mL (≈ 0.0572 µM)
MIC (Pr. vulgaris, 08601): 0.006 µg/mL (≈ 0.0137 µM)
MIC (Ps. aeruginosa, 32121): 0.10 µg/mL (≈ 0.229 µM)
MIC (S. aureus, 209P): ≦0.003 μg/ml
MIC (S. flexneli, 2A 5503; S. flexneli, 2A 5503): 0.006 µg/mL (≈ 0.0137 µM)
MIC (Ser. marcescens, 10100): 0.10 µg/mL (≈ 0.229 µM)
MIC (Ps. aeruginosa, 32104): 0.20 µg/mL (≈ 0.457 µM)
MIC [1]: 0.025 µg/mL (≈ 0.0572 µM)
Number of death (Slc:ddy male mice; [2]): same result

C[C@H]1COc2c(N3C[C@@H](F)[C@@H](C4(N)CC4)C3)c(F)cc3c(=O)c(C(=O)O)cn1c23.Cl [Example 6, 10-[4-(R)-(1-Aminocyclopropyl)-3-(S)-fluoro-1-pyrrolidinyl]-9-fluoro-2,3-dihydro-3-(S)-methyl-7-oxo-7H-pyrido[1,2,3-de][1,4]benzoxazine-6-carboxylic acid hydrochloride]
MIC (Str. pyogenes, G-36; [3]): 0.01 µg/mL
MIC (S. epidermidis, 56500; [4]): 0.025 µg/mL
MIC (X. maltophilia, 11D-1275; [5]): 0.39 µg/mL
MIC (Pr. mirabilis, IFO-3849; [6]): 0.1 µg/mL
MIC (E. coli, NIHJ; [7]): 0.01 µg/mL
MIC (S. aureus, 870307; [8]): 0.2 µg/mL
MIC (Pr. vulgaris, 08601; [9]): 0.025 µg/mL
MIC (Ps. aeruginosa, 32121; [10]): 0.1 µg/mL
MIC (S. aureus, 209P; [8]): 0.006 µg/mL
MIC (S. flexneli, 2A 5503): 0.01 µg/mL
MIC (Ser. marcescens, 10100; [11]): 0.1 µg/mL
MIC (Ps. aeruginosa, 32104; [10]): 0.39 µg/mL
MIC [1, 12]: 0.05 µg/mL

C[C@H]1COc2c(N3C[C@@H](F)[C@@H](C4(N)CC4)C3)c(F)c(N)c3c(=O)c(C(=O)O)cn1c23 [Example 8, 8-Amino-10-[4-(R)-(1-aminocyclopropyl)-3-(S)-fluoro-1-pyrrolidinyl]-9-fluoro-2,3-dihydro-3-(S)-methyl-7-oxo-7H-pyrido[1,2,3-de][1,4]benzoxazine-6-carboxylic acid]
MIC (Str. pyogenes, G-36; [3]): 0.025 µg/mL (≈ 0.0595 µM)
MIC (S. epidermidis, 56500; [4]): 0.013 µg/mL (≈ 0.0309 µM)
MIC (X. maltophilia, 11D-1275; [5]): 0.39 µg/mL (≈ 0.928 µM)
MIC (Pr. mirabilis, IFO-3849; [6]): 0.1 µg/mL (≈ 0.238 µM)
MIC (E. coli, NIHJ; [7]): 0.006 µg/mL (≈ 0.0143 µM)
MIC (S. aureus, 870307; [8]): 0.2 µg/mL (≈ 0.476 µM)
MIC (Pr. vulgaris, 08601; [9]): 0.1 µg/mL (≈ 0.238 µM)
MIC (Ps. aeruginosa, 32121; [10]): 0.2 µg/mL (≈ 0.476 µM)
MIC (S. aureus, 209P; [8]): 0.006 µg/mL (≈ 0.0143 µM)
MIC (S. flexneli, 2A 5503): 0.013 µg/mL (≈ 0.0309 µM)
MIC (Ser. marcescens, 10100; [11]): 0.2 µg/mL (≈ 0.476 µM)
MIC (Ps. aeruginosa, 32104; [10]): 0.39 µg/mL (≈ 0.928 µM)
MIC [1, 12]: 0.05 µg/mL (≈ 0.119 µM)
Number of death (Slc:ddy male mice; [2]): same result

Cc1c(N2C[C@H](F)[C@@H](C3(N)CC3)C2)c(F)c(N)c2c(=O)c(C(=O)O)cn([C@@H]3C[C@@H]3F)c12 [trans, 5-amino-7-[4-(R)-(1-aminocyclopropyl)-3-(R)-fluoro-1-pyrrolidinyl]-6-fluoro-1-(2-(S)-fluoro-1-(R)-cyclopropyl]-1,4-dihydro-8-methyl-4-oxoquinoline-3-carboxylic acid, reference compound]
Number of death (Slc:ddy male mice; 50 mg/kg intravenously, five per group): 0/5
Number of death (Slc:ddy male mice; 100 mg/kg intravenously, test stopped at second death): 2/2*
Number of death (Slc:ddy male mice; [2]): 2/2*

From US20020077345A1, “Cis-substituted aminocycloalkylpyrrolidine derivatives” (priority 1997, published 2002)
